{"source": "patent US20230210829A1", "about": "“REJUVENATION OF AGED TISSUES BY INHIBITION OF THE PGE2 DEGRADING ENZYME, 15-PGDH” (The Board of Trustees of the Leland Stanford Junior …, priority 2020, published 2023)", "key": {"[1]": {"test_system": "aged mice", "assay": "Hematoxylin and Eosin (H&E) histological evaluation of spleen in aged mice treated with 15-PGDH inhibitor", "type": "in vivo", "settings": "aged (25 months) mice, intraperitoneally for 4 weeks, H&E staining", "procedure": "FIG. 3. […] Hematoxylin and Eosin (H&E) staining of spleen in young vehicle treated (4 months), aged vehicle treated (25 months) and aged SW033291 treated (25 months) intraperitoneally for 4 weeks.\n(§1) All experiments and protocols were performed in compliance with the institutional guidelines of Stanford University and Administrative Panel on Laboratory Animal Care (APLAC). Aged (>24 mo.) mice C57BL/6 were obtained from the US National Institute on Aging (NIA) for aged muscle studies, and young (2-4 mo.) wild-type C57BL/6 mice from Jackson Laboratory."}, "[2]": {"test_system": "aged mice", "assay": "Luminex assay of mouse sera (serum cytokine levels) in aged mice treated with 15-PGDH inhibitor", "type": "in vivo", "settings": "aged (25 months) mice, 4 weeks intraperitoneal administration", "from_the_text": "FIGS. 4A-4H. Inhibition of 15-PGDH rejuvenates systemic cytokine levels. Serum levels of (FIG. 4A) interleukin-10 (IL10), (FIG. 4B) interleukin-6 (IL6), (FIG. 4C) betacellulin (BTC), (FIG. 4D) granulocyte-macrophage colony-stimulating factor (GM-CSF), (FIG. 4E) interleukin-13 (IL13), (FIG. 4F) tumor necrosis factor-alpha (TNFA), (FIG. 4G) interleukin-1 beta (IL1B), and (FIG. 4H) interleukin-22 (IL22) measured in young vehicle (4 months), young SW033291 (4 months), aged vehicle treated (25 months), and aged SW033291 treated (25 months) mice by Luminex bead arrays. MFI—Mean fluorescence intensity.\nas §1\nAging is associated with an altered state of inflammation and is associated with changes in circulating levels of various cytokines. Altered cytokine signaling in aging can initiate a cascade of dysregulated signaling pathways that negatively impact the function of various organs. Age-dysregulated cytokine signaling has been implicated in increased mortality, frailty, cellular senescence, vascular aging, cognitive decline, atherosclerosis, risk of osteoarthritis, and loss of bone mineral density in aging. […] Furthermore, a reduction of IL6 is associated with reduced adipose tissue inflammation and reduced cellular senescence. […] Increased IL22 levels are anti-inflammatory in colonic tissue and are beneficial for inflammatory bowel disease and colitis. […] This systemic effect in turn ameliorates the function of other tissues."}}, "data": [{"smiles": "CCCC[S+]([O-])c1sc2nc(-c3cccs3)cc(-c3ccccc3)c2c1N", "note": "(stereo not drawn) [SW033291, 2-(butylsulfinyl)-4-phenyl-6-(thiophen-2-yl)thieno[2,3-b]pyridin-3-amine]", "values": [{"measurement": "cell density within the splenic follicles", "setting": "[1]", "result": "increased cell density within the follicles"}, {"measurement": "follicular structure of spleen", "setting": "[1]", "result": "restored"}, {"measurement": "marginal zone of spleen", "setting": "[1]", "result": "reestablished"}, {"measurement": "splenic morphology", "setting": "[1]; vs aged vehicle and young", "result": "rejuvenated the splenic morphology"}, {"measurement": "serum level of interleukin-10 (IL10)", "setting": "[2]; FIG. 4A", "result": "restored to levels similar to those of young mice"}, {"measurement": "serum level of interleukin-6 (IL6)", "setting": "[2]; FIG. 4B", "result": "restored to levels similar to those of young mice"}, {"measurement": "serum level of betacellulin (BTC)", "setting": "[2]; FIG. 4C", "result": "restored to levels similar to those of young mice"}, {"measurement": "serum level of granulocyte-macrophage colony-stimulating factor (GM-CSF)", "setting": "[2]; FIG. 4D", "result": "restored to levels similar to those of young mice"}, {"measurement": "serum level of interleukin-13 (IL13)", "setting": "[2]; FIG. 4E", "result": "restored to levels similar to those of young mice"}, {"measurement": "serum level of tumor necrosis factor-alpha (TNFA)", "setting": "[2]; FIG. 4F", "result": "further increased"}, {"measurement": "serum level of interleukin-1 beta (IL1B)", "setting": "[2]; FIG. 4G", "result": "further increased"}, {"measurement": "serum level of interleukin-22 (IL22)", "setting": "[2]; FIG. 4H", "result": "further increased"}]}]}
